Square brackets hold non-standard residues; d marks the D form. Peptide text beside a SMILES is read from it. pY = N[C@@H](Cc1ccc(OP(=O)(O)O)cc1)C(=O)O
Assays:
reduced Csk L-SH2 = target: T1, reduced Csk L-SH2 (Homo sapiens, UniProt P41240); test: Fluorescence titration of reduced Csk L-SH2 with Cbp peptide; assay type: binding; settings: 10-residue Cbp peptide, Csk SH2, redox form not given
T1 construct: made in house
T1 sequence (P41240 73-178): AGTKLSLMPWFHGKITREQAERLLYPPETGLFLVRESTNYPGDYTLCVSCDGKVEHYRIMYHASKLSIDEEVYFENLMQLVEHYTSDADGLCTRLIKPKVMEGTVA
Protocol: Fluorescence titrations were performed at 25 °C in 3 mL of 50 mmol/L Tris-HCl (pH 7.5) using excitation and emission wavelengths of 288 nm and 320 nm, respectively. The 10-residue synthetic phosphopeptide corresponding to the specific SH2-binding site in Cbp was titrated with the L-SH2 sample. The typically adopted protein concentration is 5 μmol/L. For the denaturation experiments, ultrapure guanidine hydrochloride (Sigma S0933) was used. Proteins were exposed to guanidine hydrochloride concentrations ranging from 0 to 6 mol/L at 0.1–0.2 mol/L steps. The concentrations of guanidine hydrochloride of the solutions were determined by measuring the index of refraction and by using the following equation: d/d 0 = 1 + 0.2710 W + 0.0330 W ^2 (Tanford et al. [1966]), where W is the weight fraction of guanidine hydrochloride in the solution, d is the density of the solution, and d 0 is the density of water. Reversibility of the guanidine hydrochloride-induced unfolding reaction and the time necessary to re-establish equilibrium were determined by diluting a concentrated protein solution containing 6 mol/L guanidine hydrochloride into the buffer and by monitoring the fluorescence spectrum of the protein as a function of time. […] F unf values were calculated from the linear extrapolation of the pre- and post-unfolding baselines. […]

Csk L-SH2 disulfide bond = test: NMR-monitored reduction of oxidized SH2 by DTT; assay type: physicochemical, human; settings: 10 mmol/L DTT, pH 7.5, NMR
Text: During purification of the Csk L-SH2 domain, 50 mmol/L DTT was used to elute the protein from the chitin resin. The L-SH2 was used in reduced form, given that DTT was used to cleave L-SH2 from its intein fusion partner. Following elution of the protein from the ion exchange column, the L-SH2 became a mixture of the reduced and oxidized forms. The fully oxidized form was obtained by exposing the protein to air for several days.
Fig. 3 Comparison of the oxidized and reduced form of SH2. A Comparison of ^1H–^15N HSQC of oxidized (red) and reduced (green) SH2. B Combined chemical shift change of oxidized and reduced form SH2. The difference was calculated as ∆δ tot = [(∆δ H)^2 + (0.154∆δ N)^2]^1/2. […]
All NMR experiments were performed at 298 K on 800 MHz spectrometers equipped with triple-resonance cryoprobes. […] The combined change in chemical shift of a particular residue upon ligation with the kinase domain was calculated as ∆δ = [(∆δ H)^2 + (0.154∆δ N)^2]^1/2, where ∆δ H and ∆δ N correspond to the changes in amide proton and nitrogen chemical shift, respectively. The weight factor for ^1H and ^15N is determined from the ratio of the average variances of the amide nitrogen and proton chemical shifts observed for the 20 common amino acid residues in proteins deposited in the BioMagResBank (Mulder et al. [1999]). […]

full-length Csk = settings: ref Kemble and Sun [2009]; cited from earlier work
Text: Disulfide bonds are mostly found in secretory proteins and in extracellular domains of membrane proteins. Cytosolic proteins, which contain cysteine residues that are in close proximity to each other, may function as oxidation sensors; when the reductive potential of the cell fails, they oxidize and trigger cellular response mechanisms (Sevier and Kaiser [2002]). Mills et al. studied the unique disulfide bond of Csk SH2 that is absent in other known SH2 domains.

Row | SMILES | affinity of Cbp peptide for Csk SH2 (in words) (reduced Csk L-SH2) | time sufficient to reduce the SH2 domain (Csk L-SH2 disulfide bond) | activation of Csk (full-length Csk)
1 | CC[C@H](C)[C@H](N)C(=O)N[C@@H](CO)C(=O)N[C@@H](C)C(=O)N[C@@H](CCSC)C(=O)N[C@@H](Cc1ccc(OP(=O)(O)O)cc1)C(=O)N[C@@H](CO)C(=O)N[C@@H](CO)C(=O)N[C@H](C(=O)N[C@@H](CC(N)=O)C(=O)N[C@@H](CCCCN)C(=O)O)C(C)C [Cbp peptide] (H-ISAM[pY]SSVNK-OH) | affinity at the µmol/L level | – | –
2 | O[C@@H](CS)[C@@H](O)CS [DTT, reference compound] | – | ≤ 10 h | mildly activated

Reference: PMC5071372, “Combining biophysical methods to analyze the disulfide bond in SH2 domain of C-terminal Src kinase” (Biophysics Reports, 2016)
